Experimental data reported in ChEMBL document CHEMBL4665820, “Discovery of VU6027459: A First-in-Class Selective and CNS Penetrant mGlu Positive Allosteric Modulator Tool Compound” (ACS Med Chem Lett, 2020).

Assays:
[1] = target: Neuropeptide Y receptor type 1 (Homo sapiens) (UniProt P25929); test: Displacement of [125I]peptide YY from human Y1 receptor at 10 uM after 120 mins by scintillation counting analysis relative to control
Rattus norvegicus [2] = species on record: Rattus norvegicus; test: Displacement of [3H]-TCP from NMDA glutamate receptor phencyclidine binding site in rat at 10 uM incubated for 45 mins by scintillation counting analysis relative to control
Mus musculus = species on record: Mus musculus; test: Displacement of [3H]-PDBu from mouse phorbol ester receptor at 10 uM incubated for 60 mins by scintillation counting analysis relative to control
Rattus norvegicus [3] = species on record: Rattus norvegicus; test: Displacement of [3H]-Muscimol from GABAA channel muscimol binding site in rat brain at 10 uM incubated for 10 mins by scintillation counting analysis relative to control; format: tissue-based
Rattus norvegicus [4] = species on record: Rattus norvegicus; test: Displacement of [3H]-Flunitrazepam from GABAA channel flunitrazepam binding site in rat brain at 10 uM incubated for 60 mins by scintillation counting analysis relative to control; format: tissue-based
[5] = target: Metabotropic glutamate receptor 7 (Rattus norvegicus, UniProt P35400); test: Positive allosteric modulation of rat mGlu7 receptor expressed in HEK293 cells co-expressing Gai5 assessed as potentiation of L-AP4-induced calcium mobilization preincubated for 140 secs and treated with EC20 L-AP4 for 125 secs and followed by subsequent addition of EC80 L-AP4 by Fluo-4-AM dye based fluorescence assay; format: functional, cell-based; settings: read-out: EC50
Rattus norvegicus [6] = species on record: Rattus norvegicus; test: Displacement of [3H]-Diltiazem from L-type calcium channel benzothiazepine binding site in rat brain at 10 uM incubated for 180 mins by scintillation counting analysis relative to control; format: tissue-based
[7] = target: P2X receptor (Rattus norvegicus) (UniProt P51579+P49653+P51578+Q64663+P47824+P51577+P49654); test: Displacement of [3H]alpha, beta-methylene ATP from P2X receptor in rat urinary bladder at 10 uM incubated for 120 mins by scintillation counting analysis relative to control
Rattus norvegicus [8] = species on record: Rattus norvegicus; test: Displacement of [3H]-Kainic acid from Glutamate ionotropic kainate receptor in rat at 10 uM incubated for 120 mins by scintillation counting analysis relative to control
[9] = target: Epidermal growth factor receptor (Homo sapiens) (UniProt P00533); test: Displacement of [125I]-EGF from human EGF receptor at 10 uM incubated for 60 mins by scintillation counting analysis relative to control
Sequence of Epidermal growth factor receptor (Homo sapiens) (P00533 whole entry): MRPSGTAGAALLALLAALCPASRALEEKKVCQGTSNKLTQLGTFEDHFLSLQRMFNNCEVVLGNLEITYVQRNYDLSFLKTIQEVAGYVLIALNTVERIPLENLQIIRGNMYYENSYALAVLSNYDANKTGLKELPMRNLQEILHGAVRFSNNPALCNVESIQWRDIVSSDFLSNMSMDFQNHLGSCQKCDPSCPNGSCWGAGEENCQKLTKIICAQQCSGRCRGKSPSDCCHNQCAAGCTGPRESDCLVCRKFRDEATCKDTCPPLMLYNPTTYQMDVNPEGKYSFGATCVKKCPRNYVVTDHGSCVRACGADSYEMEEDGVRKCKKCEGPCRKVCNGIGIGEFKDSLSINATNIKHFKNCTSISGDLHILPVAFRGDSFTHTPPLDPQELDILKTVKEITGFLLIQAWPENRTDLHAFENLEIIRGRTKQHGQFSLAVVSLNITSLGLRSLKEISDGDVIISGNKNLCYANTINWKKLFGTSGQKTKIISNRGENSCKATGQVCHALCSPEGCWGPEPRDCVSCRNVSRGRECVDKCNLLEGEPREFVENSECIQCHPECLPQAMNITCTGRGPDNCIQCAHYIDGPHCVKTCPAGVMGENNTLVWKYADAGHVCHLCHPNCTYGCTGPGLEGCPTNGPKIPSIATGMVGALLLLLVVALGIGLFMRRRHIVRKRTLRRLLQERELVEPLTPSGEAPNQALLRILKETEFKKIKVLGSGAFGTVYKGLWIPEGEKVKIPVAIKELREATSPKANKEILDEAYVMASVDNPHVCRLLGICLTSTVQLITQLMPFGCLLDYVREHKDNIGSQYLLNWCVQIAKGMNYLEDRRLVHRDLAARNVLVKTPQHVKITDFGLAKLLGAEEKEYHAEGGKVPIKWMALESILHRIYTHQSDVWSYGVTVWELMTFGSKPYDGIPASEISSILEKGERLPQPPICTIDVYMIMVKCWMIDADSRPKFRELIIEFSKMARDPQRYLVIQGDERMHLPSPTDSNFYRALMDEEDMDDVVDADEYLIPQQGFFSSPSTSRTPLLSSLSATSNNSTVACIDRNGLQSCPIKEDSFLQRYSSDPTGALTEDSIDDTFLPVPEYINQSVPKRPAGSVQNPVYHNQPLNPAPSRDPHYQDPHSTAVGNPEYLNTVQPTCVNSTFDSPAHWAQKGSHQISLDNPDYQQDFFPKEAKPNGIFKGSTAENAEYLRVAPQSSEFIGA

[10] = target: Delta-type opioid receptor (Homo sapiens) (UniProt P41143); test: Displacement of [3H]DADLE from human recombinant Delta opioid receptor at 10 uM after 60 mins by scintillation counting analysis relative to control
Sequence of Delta-type opioid receptor (Homo sapiens) (P41143 whole entry): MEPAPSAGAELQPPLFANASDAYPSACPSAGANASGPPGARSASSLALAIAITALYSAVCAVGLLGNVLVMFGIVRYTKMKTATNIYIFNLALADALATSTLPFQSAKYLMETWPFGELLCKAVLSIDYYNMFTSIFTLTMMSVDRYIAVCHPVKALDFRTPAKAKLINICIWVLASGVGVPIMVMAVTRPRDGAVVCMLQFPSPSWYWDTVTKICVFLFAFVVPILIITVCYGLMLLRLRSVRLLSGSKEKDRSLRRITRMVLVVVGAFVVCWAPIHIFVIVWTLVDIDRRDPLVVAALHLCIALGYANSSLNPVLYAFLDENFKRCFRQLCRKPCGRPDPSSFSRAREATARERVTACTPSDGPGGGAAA

[11] = target: Estrogen receptor (Homo sapiens) (UniProt P03372); test: Displacement of [3H]-estradiol from human recombinant Estrogen ERalpha receptor at 10 uM incubated for 120 mins by scintillation counting analysis relative to control
[12] = target: Sigma non-opioid intracellular receptor 1 (Homo sapiens, UniProt Q99720); test: Displacement of [3H]-Pentazocine from human recombinant sigma 1 receptor at 10 uM incubated for 120 mins by scintillation counting analysis relative to control
Sequence of Sigma non-opioid intracellular receptor 1 (Q99720 whole entry): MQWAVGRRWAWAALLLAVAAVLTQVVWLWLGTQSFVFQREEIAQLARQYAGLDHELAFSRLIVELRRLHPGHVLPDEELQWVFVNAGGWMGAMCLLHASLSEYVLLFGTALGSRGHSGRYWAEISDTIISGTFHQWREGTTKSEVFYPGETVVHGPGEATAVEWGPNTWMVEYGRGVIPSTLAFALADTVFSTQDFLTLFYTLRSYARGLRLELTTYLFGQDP

[13] = Fraction unbound in mouse plasma at 5 uM incubated for 4 hrs by equilibrium dialysis based LC-MS/MS analysis; format: ADME, cell-free
[14] = target: Neuropeptide Y receptor type 2 (Homo sapiens) (UniProt P49146); test: Displacement of [125I]peptide YY from human Y2 receptor at 10 uM after 120 mins by scintillation counting analysis relative to control
[15] = target: Beta-1 adrenergic receptor (Homo sapiens) (UniProt P08588); test: Displacement of [3H](-)CGP 12177 from human beta1 adrenoceptor at 10 uM after 60 mins by scintillation counting analysis relative to control
[16] = target: Platelet-activating factor receptor (Homo sapiens) (UniProt P25105); test: Displacement of [3H]-C18-PAF from human PAF receptor at 10 uM incubated for 180 mins by scintillation counting analysis relative to control
Sequence of Platelet-activating factor receptor (Homo sapiens) (P25105 whole entry): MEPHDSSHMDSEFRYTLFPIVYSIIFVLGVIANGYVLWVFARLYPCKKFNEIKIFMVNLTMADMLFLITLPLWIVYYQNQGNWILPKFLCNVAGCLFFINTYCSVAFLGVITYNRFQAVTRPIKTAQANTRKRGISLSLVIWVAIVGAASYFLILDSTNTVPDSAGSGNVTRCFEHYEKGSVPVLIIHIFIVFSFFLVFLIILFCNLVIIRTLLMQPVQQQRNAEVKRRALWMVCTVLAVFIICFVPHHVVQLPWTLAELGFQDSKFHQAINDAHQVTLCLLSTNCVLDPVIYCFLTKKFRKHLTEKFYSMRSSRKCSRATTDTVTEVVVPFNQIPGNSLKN

[17] = target: Histamine H2 receptor (Homo sapiens) (UniProt P25021); test: Displacement of [125I]APT from human recombinant histamine H2 receptor at 10 uM after 120 mins by scintillation counting analysis relative to control
[18] = target: Alpha-1A adrenergic receptor (Homo sapiens) (UniProt P35348); test: Displacement of [3H]-Prazosin from human recombinant adrenergic alpha 1A receptor at 10 uM incubated for 60 mins by scintillation counting analysis relative to control
Sequence of Alpha-1A adrenergic receptor (Homo sapiens) (P35348 whole entry): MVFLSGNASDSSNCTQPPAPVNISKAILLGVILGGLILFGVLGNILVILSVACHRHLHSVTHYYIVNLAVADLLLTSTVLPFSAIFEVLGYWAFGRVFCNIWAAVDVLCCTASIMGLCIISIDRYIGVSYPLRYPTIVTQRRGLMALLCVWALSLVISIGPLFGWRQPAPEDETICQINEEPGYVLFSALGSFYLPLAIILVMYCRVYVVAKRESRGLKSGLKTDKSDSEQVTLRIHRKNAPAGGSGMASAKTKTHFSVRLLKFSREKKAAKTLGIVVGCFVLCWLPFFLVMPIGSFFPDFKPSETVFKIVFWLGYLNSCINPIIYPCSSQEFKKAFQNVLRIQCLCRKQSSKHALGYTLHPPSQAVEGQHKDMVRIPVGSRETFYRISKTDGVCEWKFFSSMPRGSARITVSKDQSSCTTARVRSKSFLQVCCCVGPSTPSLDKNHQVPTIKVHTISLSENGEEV

[19] = target: Adenosine receptor A3 (Homo sapiens) (UniProt P0DMS8); test: Displacement of [125I]AB-MECA from human recombinant adenosine A3 receptor at 10 uM after 120 mins by scintillation counting analysis relative to control
Sequence of Adenosine receptor A3 (Homo sapiens) (P0DMS8 whole entry): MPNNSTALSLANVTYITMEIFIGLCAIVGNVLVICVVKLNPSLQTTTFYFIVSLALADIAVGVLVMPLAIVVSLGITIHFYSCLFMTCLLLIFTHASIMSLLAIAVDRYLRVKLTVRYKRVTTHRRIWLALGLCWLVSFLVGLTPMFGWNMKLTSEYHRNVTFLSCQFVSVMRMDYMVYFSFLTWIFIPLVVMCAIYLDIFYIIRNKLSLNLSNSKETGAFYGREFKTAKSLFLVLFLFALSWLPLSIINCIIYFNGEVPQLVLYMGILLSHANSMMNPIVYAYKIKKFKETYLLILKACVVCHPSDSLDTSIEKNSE

[20] = target: Endothelin-1 receptor (Homo sapiens) (UniProt P25101); test: Displacement of [125I]-endothelin-1 from human recombinant ETA receptor at 10 uM after 120 mins by scintillation counting analysis relative to control
[21] = target: Endothelin receptor type B (Homo sapiens) (UniProt P24530); test: Displacement of [125I]-endothelin1 from human recombinant Endothelin ETB receptor cells at 10 uM incubated for 120 mins by scintillation counting analysis relative to control; format: cell-based
[22] = target: D(1A) dopamine receptor (Homo sapiens) (UniProt P21728); test: Displacement of [3H]-SCH 23390 from human recombinant dopamine D1 receptor at 10 uM by scintillation counting 60 mins analysis relative to control
[23] = target: Gamma-aminobutyric acid type B receptor subunit 1 (Homo sapiens) (UniProt Q9UBS5); test: Displacement of [3H]-CGP54626 from human recombinant GABAB1A channel at 10 uM incubated for 180 mins by scintillation counting analysis relative to control
[24] = target: Kappa-type opioid receptor (Homo sapiens) (UniProt P41145); test: Displacement of [3H]U69593 from human kappa receptor at 10 uM after 60 mins by scintillation counting analysis relative to control
Sequence of Kappa-type opioid receptor (Homo sapiens) (P41145 whole entry): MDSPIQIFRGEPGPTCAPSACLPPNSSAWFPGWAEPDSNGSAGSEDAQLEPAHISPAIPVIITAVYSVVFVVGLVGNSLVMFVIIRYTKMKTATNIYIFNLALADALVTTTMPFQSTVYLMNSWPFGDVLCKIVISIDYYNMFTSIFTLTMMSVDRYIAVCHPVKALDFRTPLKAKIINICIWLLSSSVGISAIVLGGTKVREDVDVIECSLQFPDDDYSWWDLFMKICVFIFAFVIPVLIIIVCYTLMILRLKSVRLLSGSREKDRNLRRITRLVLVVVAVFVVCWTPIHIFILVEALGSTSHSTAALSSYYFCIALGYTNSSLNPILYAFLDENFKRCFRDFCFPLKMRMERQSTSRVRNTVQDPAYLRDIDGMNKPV

[25] = target: Glucocorticoid receptor (Homo sapiens) (UniProt P04150); test: Displacement of [3H]-Dexamethasone from human Glucocorticoid receptors at 10 uM incubated for 360 mins by scintillation counting analysis relative to control
Sequence of Glucocorticoid receptor (Homo sapiens) (P04150 whole entry): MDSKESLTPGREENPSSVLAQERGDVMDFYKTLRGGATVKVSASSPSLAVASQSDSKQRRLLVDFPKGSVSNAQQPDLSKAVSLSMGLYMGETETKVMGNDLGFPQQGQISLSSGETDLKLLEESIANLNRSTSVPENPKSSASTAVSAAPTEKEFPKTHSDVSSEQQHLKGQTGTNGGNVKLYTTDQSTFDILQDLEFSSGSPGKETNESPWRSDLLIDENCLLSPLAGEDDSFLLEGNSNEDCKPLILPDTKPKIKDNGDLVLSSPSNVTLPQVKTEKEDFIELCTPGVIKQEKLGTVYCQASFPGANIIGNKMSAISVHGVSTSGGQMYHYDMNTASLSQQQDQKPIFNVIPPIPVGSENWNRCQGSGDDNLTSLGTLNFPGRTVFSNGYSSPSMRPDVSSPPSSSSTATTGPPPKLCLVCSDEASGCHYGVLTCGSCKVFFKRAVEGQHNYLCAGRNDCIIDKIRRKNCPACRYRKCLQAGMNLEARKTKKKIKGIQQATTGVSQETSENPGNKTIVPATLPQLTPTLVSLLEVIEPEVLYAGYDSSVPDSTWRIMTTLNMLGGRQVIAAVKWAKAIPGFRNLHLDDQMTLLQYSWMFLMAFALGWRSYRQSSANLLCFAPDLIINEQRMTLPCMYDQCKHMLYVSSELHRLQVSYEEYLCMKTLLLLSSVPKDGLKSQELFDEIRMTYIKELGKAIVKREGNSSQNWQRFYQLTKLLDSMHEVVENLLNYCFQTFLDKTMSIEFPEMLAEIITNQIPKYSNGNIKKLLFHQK

[26] = target: 5-hydroxytryptamine receptor 1A (Homo sapiens) (UniProt P08908); test: Displacement of [3H]8-OH-DPAT from recombinant human 5-HT1A receptor at 10 uM after 60 mins by scintillation counting analysis relative to control
[27] = target: Substance-P receptor (Homo sapiens) (UniProt P25103); test: Displacement of [125I]-Substance P LYS3 from human recombinant tachykinin NK1 receptor at 10 uM incubated for 30 mins by scintillation counting analysis relative to control
Sequence of Substance-P receptor (Homo sapiens) (P25103 whole entry): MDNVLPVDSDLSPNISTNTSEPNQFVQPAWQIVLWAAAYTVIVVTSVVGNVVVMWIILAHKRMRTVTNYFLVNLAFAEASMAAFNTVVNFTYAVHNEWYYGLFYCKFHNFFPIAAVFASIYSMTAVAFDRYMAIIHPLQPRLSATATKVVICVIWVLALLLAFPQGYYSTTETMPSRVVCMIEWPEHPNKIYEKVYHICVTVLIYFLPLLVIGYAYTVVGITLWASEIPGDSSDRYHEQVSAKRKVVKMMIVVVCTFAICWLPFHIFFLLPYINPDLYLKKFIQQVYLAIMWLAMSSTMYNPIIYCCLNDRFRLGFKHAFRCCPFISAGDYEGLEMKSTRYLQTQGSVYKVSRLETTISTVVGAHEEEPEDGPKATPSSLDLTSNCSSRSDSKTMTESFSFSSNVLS

[28] = target: Prostaglandin E2 receptor EP4 subtype (Homo sapiens) (UniProt P35408); test: Displacement of [3H]-Prostaglandin E2 from human recombinant prostanoid receptor EP4 at 10 uM incubated for 120 mins by scintillation counting analysis relative to control
Sequence of Prostaglandin E2 receptor EP4 subtype (Homo sapiens) (P35408 whole entry): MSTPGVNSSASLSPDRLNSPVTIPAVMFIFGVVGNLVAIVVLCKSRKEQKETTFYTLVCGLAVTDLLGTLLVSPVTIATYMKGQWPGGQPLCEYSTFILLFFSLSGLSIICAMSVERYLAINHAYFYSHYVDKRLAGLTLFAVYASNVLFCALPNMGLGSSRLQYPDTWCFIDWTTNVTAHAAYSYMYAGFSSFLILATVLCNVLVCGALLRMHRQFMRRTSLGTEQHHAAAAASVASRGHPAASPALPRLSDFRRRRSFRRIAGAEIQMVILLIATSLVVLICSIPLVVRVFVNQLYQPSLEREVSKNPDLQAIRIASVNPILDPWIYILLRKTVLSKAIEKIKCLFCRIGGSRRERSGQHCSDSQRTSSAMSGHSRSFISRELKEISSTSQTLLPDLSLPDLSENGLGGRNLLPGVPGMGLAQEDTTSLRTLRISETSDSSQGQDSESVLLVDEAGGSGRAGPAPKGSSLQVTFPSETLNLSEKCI

Rattus norvegicus [29] = species on record: Rattus norvegicus; test: Displacement of [3H]-MDL105519 from NMDA glutamate receptor glycine binding site in rat at 10 uM incubated for 30 mins by scintillation counting analysis relative to control
[30] = target: Melatonin receptor type 1A (Homo sapiens) (UniProt P48039); test: Displacement of [125I][…] from human recombinant MT1 receptor at 10 uM after 240 mins by scintillation counting analysis relative to control

For `COc1cccc2c(N3CCN(c4ccccc4F)CC3)c(C#N)cnc12`, the inhibition [1] was less than 50%, the inhibition (Rattus norvegicus [2]) was less than 50% and the inhibition (Mus musculus) was less than 50%. It also gave an inhibition (Rattus norvegicus [3]) of less than 50%, an inhibition (Rattus norvegicus [4]) of less than 50% and an EC50 [5] of 1100 nM. The inhibition (Rattus norvegicus [6]) was less than 50%, the inhibition [7] was less than 50% and the inhibition (Rattus norvegicus [8]) was less than 50%. It also gave an inhibition [9] of less than 50%, an inhibition [10] of less than 50% and an inhibition [11] of less than 50%. The inhibition [12] was less than 50%, the fraction unbound at 4 h, 5 µM [13] was 0.051 and the inhibition [14] was less than 50%. For the same compound, the inhibition [15] was less than 50%, the inhibition [16] was less than 50% and the inhibition [17] was less than 50%. The inhibition [18] was less than 50%, the inhibition [19] was less than 50% and the inhibition [20] was less than 50%. For the same compound, the inhibition [21] was less than 50%, the inhibition [22] was less than 50% and the inhibition [23] was less than 50%. It also gave an inhibition [24] of less than 50%, an inhibition [25] of less than 50% and an inhibition [26] of less than 50%. It also gave an inhibition [27] of less than 50%, an inhibition [28] of less than 50% and an inhibition (Rattus norvegicus [29]) of less than 50%. It also gave an inhibition [30] of less than 50%.

In the case of `COc1cc(F)cc2c(N3CCN(c4ccccc4F)CC3)c(C#N)cnc12`, the inhibition ([1]; tested as the 2H-labelled form) is reported as less than 50%, the inhibition (Rattus norvegicus [2]; tested as the 2H-labelled form) is reported as less than 50% and the inhibition (Mus musculus; tested as the 2H-labelled form) is reported as less than 50%. The inhibition (Rattus norvegicus [3]; tested as the 2H-labelled form) was less than 50%, the inhibition (Rattus norvegicus [4]; tested as the 2H-labelled form) was less than 50% and the EC50 [5] was 1400 nM. The inhibition (Rattus norvegicus [6]; tested as the 2H-labelled form) was less than 50%, the inhibition ([7]; tested as the 2H-labelled form) was less than 50% and the inhibition (Rattus norvegicus [8]; tested as the 2H-labelled form) was less than 50%. The inhibition ([9]; tested as the 2H-labelled form) was less than 50%, the inhibition ([10]; tested as the 2H-labelled form) was less than 50% and the inhibition ([11]; tested as the 2H-labelled form) was less than 50%. For the same compound, the inhibition ([12]; tested as the 2H-labelled form) was 77%, the fraction unbound at 4 h, 5 µM [13] was 0.012 and the inhibition ([14]; tested as the 2H-labelled form) was less than 50%. For the same compound, the inhibition ([15]; tested as the 2H-labelled form) was less than 50%, the inhibition ([16]; tested as the 2H-labelled form) was less than 50% and the inhibition ([17]; tested as the 2H-labelled form) was less than 50%. It also gave an inhibition ([18]; tested as the 2H-labelled form) of less than 50%, an inhibition ([19]; tested as the 2H-labelled form) of less than 50% and an inhibition ([20]; tested as the 2H-labelled form) of less than 50%. The inhibition ([21]; tested as the 2H-labelled form) was less than 50%, the inhibition ([22]; tested as the 2H-labelled form) was less than 50% and the inhibition ([23]; tested as the 2H-labelled form) was less than 50%. For the same compound, the inhibition ([24]; tested as the 2H-labelled form) was less than 50%, the inhibition ([25]; tested as the 2H-labelled form) was less than 50% and the inhibition ([26]; tested as the 2H-labelled form) was less than 50%. For the same compound, the inhibition ([27]; tested as the 2H-labelled form) was less than 50%, the inhibition ([28]; tested as the 2H-labelled form) was less than 50% and the inhibition (Rattus norvegicus [29]; tested as the 2H-labelled form) was less than 50%. The inhibition ([30]; tested as the 2H-labelled form) was less than 50%.
